Article PMC4822253, “Inhibition of BMP and of TGFβ receptors downregulates expression of XIAP and TAK1 leading to lung cancer cell death” (Molecular Cancer, 2016)

Tests used:
[1] = Plasma protein binding by equilibrium dialysis; format: in vitro ADME; conditions: human plasma
Pharmacokinetics in mice = format: in vivo; conditions: BALB/c mice; 2 mg/kg tail vein injection and 10 mg/kg p.o. study
Procedure: Three mice at each time point were dosed with a 2 mg/kg tail vein injection and 10 mg/kg p.o. Blood samples were taken 0.08, 0.25, 0.5, 1, 2, 4, 8, 12, and 24 h (i.v.) and 0.25, 0.5, 1, 2, 4, 6, 8, 12, and 24 h (p.o.). Plasma half-life, clearance, and volume of distribution were then determined.

A549 cells [2] = assay: Western blot analysis of cells in culture; format: cell-based
Procedure: (§1) Total cellular protein was prepared using RIPA buffer containing a protease inhibitor cocktail and protein concentration was measured using the BCA assay as described. In brief, protein was analyzed by SDS-PAGE, transferred to nitrocellulose (Schleicher and Schuell, Keene, NH). After blocking, the blots were incubated overnight at 4 °C with the appropriate primary antibody in Tris-buffered saline with 1 % Tween (TBST) and 5 % BSA. Secondary antibodies were applied for 1 h at room temperature. Specific proteins were detected using the enhanced chemiluminescence system (Amersham, Arlington Heights, IL). The primary antibodies that were used were rabbit monoclonal anti-pSmad 1/5, rabbit monoclonal anti-pSmad2, rabbit monoclonal anti-Smad2, rabbit monoclonal anti-pTAK1, rabbit monoclonal XIAP, rabbit anti-monoclonal p-p65, rabbit monoclonal anti-activated caspase-3, rabbit polyclonal anti-BMPRII, and rabbit monoclonal anti-EGR-1 (Cell signaling Technology, Danvers MA), Rabbit monoclonal anti-TAK1 (Invitrogen, Grand Island NY), rabbit anti-actin, an affinity isolated antigen specific antibody (Sigma, Saint Louis, MO), rabbit monoclonal anti-Id1 and rabbit monoclonal anti-Id3 (Calbioreagents, San Mateo, CA), rabbit polyclonal anti-GAPDH (Sigma, St. Louis, MO) and rabbit polyclonal pMEK-1/2 (Cell Signaling, Danvers MA).

H1299 cells [3] = assay: Western blot analysis of cells in culture; format: cell-based; conditions: H1299 cells
Procedure: as §1

H1299 Id1-luc cells = assay: Id1-promoter luciferase reporter assay; format: cell-based; conditions: 1.0 μM and 2.5 μM, 48 h
Procedure: H1299 cells were stably transfected with the Id1-promoter luciferase reporter. Treated cells were lysed with 1X luciferase lysis buffer (Promega). Samples were added to luciferase assay substrate (Promega) and luminsescence measured by the TD-20/20 Luminometer (Turner Designs/Turner BioSystems, Sunnyvale, CA). Control samples included luciferase assay substrate alone and luciferase assay substrate plus 1X reporter lysis buffer.

A549 cells [4] = assay: Cell counts (live cells, trypan blue); format: cell-based; conditions: compound alone, 7 days
Procedure: (§2) Cells were plated into 6 well plates at 10^5 cells per well and treated with 1 μM DMSO or antagonist for 7 days. The cells were detached with trypsin, stained with trypan blue, and the number of live cells counted using a hemocytometer.

H1299 cells [5] = assay: Cell counts (live cells, trypan blue); format: cell-based
Procedure: as §2

A549 cells [6] = assay: Cell death assay (ethidium bromide uptake); format: cell-based; conditions: after 3 days
Procedure: (§3) Cells were plated in 6 well plates with 10^6 cells per well. Three days following treatment with inhibitor(s) and/or transfection the adherent and floating cells were harvested and incubated with 0.1 mg/ml of ethidium bromide. Cells that die by necrosis or apoptosis lose membrane integrity and take up ethidium bromide. Immediately after staining approximately 100 cells were counted and the percentage of cells that took up ethidium bromide was determined.

H1299 cells [7] = assay: Cell death assay (ethidium bromide uptake); format: cell-based
Procedure: as §3

[8] = test system: lung cancer cell lines H157, A549, H1299, H727, U1752; assay: Cell counts in panel of lung cancer cell lines; format: cell-based; conditions: 1 μM; 7 days; percent of vehicle control
Procedure: as §2
Additional file 1: Figure S1. […] Data is depicted as percent of vehicle control. Experiments were performed 3 times. (TIF 749 kb) Additional file 2: Figure S2. […] Non-specific band from the same Western blot was used as a loading control. Experiments performed at least 3 times. (TIF 2680 kb) Additional file 3: Figure S3. Pharmacokinetics of DMH2. […] (TIF 1187 kb) Additional file 4: Figure S4. […] (A-B) Western blot of tumor xenografts treated with BMP inhibitors for 24 h and 9 days. […] (E-G) Data depict the mean as the percent of control. Experiments were performed at least 3 times. (TIF 9413 kb) Additional file 5: Figure S5. […] The data represents the mean of at least 4 experiments. (TIF 359 kb) Additional file 6: Figure S6. […] The studies represent the mean of at least 3 independent experiments. […] (TIF 2411 kb)

Alk2/ACVRR1 = molecular target: T1, Alk2/ACVRR1 (Homo sapiens, UniProt Q04771); parameters: purchased Reaction Biology Corporation (Malvern, PA); conditions: reported; read-out: IC50 for the BMP type I receptor Alk2; cited from earlier work
T1 sequence (Q04771 21-509): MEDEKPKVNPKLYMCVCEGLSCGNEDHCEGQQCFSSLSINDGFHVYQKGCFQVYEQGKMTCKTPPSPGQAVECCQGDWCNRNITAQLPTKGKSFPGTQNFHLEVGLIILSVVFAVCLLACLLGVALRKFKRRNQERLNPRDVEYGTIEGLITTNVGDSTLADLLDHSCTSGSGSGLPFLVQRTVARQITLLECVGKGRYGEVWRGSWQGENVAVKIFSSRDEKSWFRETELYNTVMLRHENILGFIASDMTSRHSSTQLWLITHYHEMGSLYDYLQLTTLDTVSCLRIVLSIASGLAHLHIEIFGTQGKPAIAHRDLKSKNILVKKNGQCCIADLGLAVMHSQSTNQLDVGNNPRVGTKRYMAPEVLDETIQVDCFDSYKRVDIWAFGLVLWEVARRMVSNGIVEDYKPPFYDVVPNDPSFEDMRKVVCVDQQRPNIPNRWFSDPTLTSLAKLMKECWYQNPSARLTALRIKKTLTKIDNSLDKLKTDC

[9] = 24 and 48 h, suppression at higher concentrations

In the case of `c1ccc2c(-c3cnn4cc(-c5ccc(OCCN6CCOCC6)cc5)cnc34)ccnc2c1` [DMH2], the “percent binding plasma proteins” value [1] is reported as 98.6 % +/−0.7, the elimination half-life (Pharmacokinetics in mice) is reported as 57 min and the systemic plasma clearance (Pharmacokinetics in mice) is reported as 68.45 mL/min/kg. For the same molecule, the “low dose that can cause an increase in the expression of Id1” value (A549 cells [2]; [9]) was 0.5 µM, the “expression of activated caspase-3” value (A549 cells [2]; 48 h) was “induced” and the “expression of phosphorylated MEK-1/2” value (A549 cells [2]; 48 h) was “increase”. For the same molecule, the “expression of Smad2” value (A549 cells [2]; 3 days) was “very significant decrease”, the “expression of TAK1 and phosphorylation of NF-kappa B subunit p65” value (A549 cells [2]; 3 days) was “decrease” and the “expression of XIAP” value (A549 cells [2]; after 3 days) was “significant decrease”. For the same molecule, the “phosphorylation of TAK1 and Smad2” value (A549 cells [2]; increasing doses, 48 h) was “increase in phosphorylation of TAK1and Smad2 at lower doses, which tapered off at higher doses”, the “expression of phosphorylated MEK-1/2” value (H1299 cells [3]; 24 and 48 h) was “increase” and the “low dose that can cause an increase in the expression of Id1” value (H1299 cells [3]; [9]) was 0.5 µM. For the same molecule, the “expression of activated caspase-3” value (H1299 cells [3]; 48 h) was “induced”, the “expression of Smad2” value (H1299 cells [3]; 3 days) was “very significant decrease” and the “expression of TAK1 and phosphorylation of NF-kappa B subunit p65” value (H1299 cells [3]; 3 days) was “decrease”. The “expression of XIAP” value (H1299 cells [3]; after 3 days (cell line not stated for DMH1 and LDN)) was “significant decrease”, the “phosphorylation of TAK1 and Smad2” value (H1299 cells [3]; increasing doses, 48 h) was “increase in phosphorylation of TAK1and Smad2 at lower doses, which tapered off at higher doses” and the “suppression of Id1 promoter activity in comparison to DMH1” value (H1299 Id1-luc cells) was “significantly greater suppression”. The “growth (cell counts)” value (A549 cells [4]) was “growth suppression”, the “growth suppression compared to DMH1 and LDN” value (H1299 cells [5]) was “significantly greater growth suppression” and the “growth (cell counts)” value (H1299 cells [5]; compound alone, 7 days) was “significant growth suppression”. The cell death (A549 cells [6]) was “significant cells death”, the “cell death compared to DMH1 and LDN” value (H1299 cells [7]; H1299 cells) was “significantly greater” and the “cell death in cells expressing mutant XIAP” value (H1299 cells [7]; H1299 cells stably expressing mutant XIAP, 3 days) was “resistant to cell death”. For the same molecule, the cell death (H1299 cells [7]; H1299 cells, after 3 days) was “significant cells death”, the “growth (cell counts)” value [8] was “inhibited growth in all of the cell lines” and the IC50 (Alk2/ACVRR1) was 42.8 nM.
